pIC50: −log10 of the molar value.
Columns and labels:
IGF-1R [1] = target: T1, IGF-1R (Homo sapiens, UniProt P08069); test: Example B-2: IGF-1R Assay (PathHunter cell lines, EC80 agonist challenge, chemiluminescent detection); format: cell-based; settings: PathHunter cells, compound 60 minutes at 37° C., EC80 agonist 3 hours; read-out: IC50, Biological Activity against IGF-1R (Table B2)
T1 construct: expressed in transfected cells
In short: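 PathHunter cells were pre-incubated with compound for 60 min at 37° C (1% vehicle), then challenged with EC80 agonist for 3 h at room temperature. Chemiluminescent detection after 1 h gave % inhibition relative to EC80 and vehicle controls, from which IC50 was derived.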

IGF-1R [2] = target: T1, IGF-1R; test: Example B-1: IGF-1R Assay (PC3 cells stimulated with IGF1, AlphaLISA on cell lysates); format: cell-based; settings: compound two hours, IGF1 200 ng/mL for 30 min, read-out: IC50, Biological Activity against IGF-1R (Table B1)
In short: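 PC3 cells serum-starved 2 h, treated 2 h with 3-fold serially diluted compound, then stimulated 30 min with IGF1 (200 ng/mL final). Lysates analysed by AlphaLISA; % inhibition calculated relative to vehicle and EC80 controls, IC50 derived.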

T1 sequence (P08069 31-1367): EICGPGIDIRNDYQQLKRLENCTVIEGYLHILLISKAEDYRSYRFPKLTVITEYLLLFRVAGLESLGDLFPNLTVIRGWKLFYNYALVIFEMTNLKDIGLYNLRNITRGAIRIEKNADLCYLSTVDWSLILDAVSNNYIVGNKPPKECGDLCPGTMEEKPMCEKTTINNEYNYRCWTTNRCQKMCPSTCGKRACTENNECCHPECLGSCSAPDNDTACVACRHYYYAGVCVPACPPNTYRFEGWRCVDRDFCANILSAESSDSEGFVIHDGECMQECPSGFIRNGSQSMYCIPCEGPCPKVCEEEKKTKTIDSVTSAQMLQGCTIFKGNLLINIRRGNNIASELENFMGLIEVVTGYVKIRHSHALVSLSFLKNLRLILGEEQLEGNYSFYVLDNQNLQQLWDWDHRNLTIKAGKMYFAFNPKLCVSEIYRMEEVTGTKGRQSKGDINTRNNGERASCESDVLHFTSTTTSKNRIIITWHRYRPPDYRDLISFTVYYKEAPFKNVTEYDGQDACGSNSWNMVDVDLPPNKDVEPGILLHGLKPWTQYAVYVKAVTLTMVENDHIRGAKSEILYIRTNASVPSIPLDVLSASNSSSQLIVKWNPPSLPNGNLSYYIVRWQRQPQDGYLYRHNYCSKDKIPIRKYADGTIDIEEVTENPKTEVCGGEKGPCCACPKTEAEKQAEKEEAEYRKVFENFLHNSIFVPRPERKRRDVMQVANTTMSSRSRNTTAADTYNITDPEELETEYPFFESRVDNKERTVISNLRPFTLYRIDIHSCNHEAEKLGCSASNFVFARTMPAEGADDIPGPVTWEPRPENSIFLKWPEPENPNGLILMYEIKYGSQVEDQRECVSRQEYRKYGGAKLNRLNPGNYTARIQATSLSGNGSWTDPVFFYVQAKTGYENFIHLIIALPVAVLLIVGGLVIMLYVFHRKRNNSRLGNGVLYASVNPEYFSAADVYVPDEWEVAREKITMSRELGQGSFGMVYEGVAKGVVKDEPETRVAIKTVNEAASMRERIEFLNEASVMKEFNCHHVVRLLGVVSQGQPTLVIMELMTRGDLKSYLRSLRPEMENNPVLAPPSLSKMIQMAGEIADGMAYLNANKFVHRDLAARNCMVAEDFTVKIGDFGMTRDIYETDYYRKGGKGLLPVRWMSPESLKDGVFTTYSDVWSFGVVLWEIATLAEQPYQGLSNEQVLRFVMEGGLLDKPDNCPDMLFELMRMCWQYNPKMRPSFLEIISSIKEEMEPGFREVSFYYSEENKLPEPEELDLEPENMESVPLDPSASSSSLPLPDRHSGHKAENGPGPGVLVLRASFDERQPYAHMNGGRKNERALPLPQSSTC

Row | pIC50 (IGF-1R [1]) | pIC50 (IGF-1R [2]) | SMILES
1 | ≥ 6.30 | ≥ 6.30 | CC1(C)C(=O)N(c2ccc(SC(F)(F)F)cc2)C(=O)N1Cc1ccnc2[nH]ccc12 [Compound 1, 1-((1H-pyrrolo[2,3-b]pyridin-4-yl)methyl)-5,5-dimethyl-3-(4-((trifluoromethyl)thio)phenyl)imidazolidine-2,4-dione]
2 | ≥ 6.30 | ≥ 6.30 | CC1(C)C(=O)N(c2ccc(SC(F)(F)F)cc2)C(=O)N1Cc1ccnc2c1CC(=O)N2 [Compound 12, 5,5-dimethyl-1-((2-oxo-2,3-dihydro-1H-pyrrolo[2,3-b]pyridin-4-yl)methyl)-3-(4-((trifluoromethyl)thio)phenyl)imidazolidine-2,4-dione]
3 | ≥ 6.30 | ≥ 6.30 | CC1(C)C(=O)N(c2ccc(C3(C(F)(F)F)CC3)cc2)C(=O)N1Cc1ccnc2c1CC(=O)N2 [Compound 13, 5,5-dimethyl-1-((2-oxo-2,3-dihydro-1H-pyrrolo[2,3-b]pyridin-4-yl)methyl)-3-(4-(1-(trifluoromethyl)cyclopropyl)phenyl)imidazolidine-2,4-dione]
4 | ≥ 6.30 | ≥ 6.30 | CC1(C)C(=O)N(c2ccc(SC(F)(F)F)cc2)C(=O)N1Cc1ccnc2c1CCN2 [Compound 16, 1-((2,3-dihydro-1H-pyrrolo[2,3-b]pyridin-4-yl)methyl)-5,5-dimethyl-3-(4-((trifluoromethyl)thio)phenyl)imidazolidine-2,4-dione]
5 | ≥ 6.30 | ≥ 6.30 | CC1(C)C(=O)N(c2ccc(C3(C(F)(F)F)CC3)cc2)C(=O)N1Cc1ccnc2c1OCCN2 [Compound 17, 1-((3,4-dihydro-2H-pyrido[3,2-b][1,4]oxazin-8-yl)methyl)-5,5-dimethyl-3-(4-(1-(trifluoromethyl)cyclopropyl)phenyl) imidazolidine-2,4-dione]
6 | ≥ 6.30 | ≥ 6.30 | CC1(C)C(=O)N(c2ccc(C3(C(F)(F)F)CC3)cc2)C(=O)N1Cc1ccnc2c1CCCN2 [Compound 18, 5,5-dimethyl-1-((5,6,7,8-tetrahydro-1,8-naphthyridin-4-yl)methyl)-3-(4-(1-(trifluoromethyl)cyclopropyl)phenyl) imidazolidine-2,4-dione]
7 | ≥ 6.30 | ≥ 6.30 | CC1(C)C(=O)Nc2nccc(CN3C(=O)N(c4ccc(SC(F)(F)F)cc4)C(=O)C3(C)C)c21 [Compound 19, 1-((3,3-dimethyl-2-oxo-2,3-dihydro-1H-pyrrolo[2,3-b]pyridin-4-yl)methyl)-5,5-dimethyl-3-(4-((trifluoromethyl)thio)phenyl)imidazolidine-2,4-dione]
8 | ≥ 6.30 | ≥ 6.30 | CC1(C)CNc2nccc(CN3C(=O)N(c4ccc(SC(F)(F)F)cc4)C(=O)C3(C)C)c21 [Compound 20, 1-((3,3-dimethyl-2,3-dihydro-1H-pyrrolo[2,3-b]pyridin-4-yl)methyl)-5,5-dimethyl-3-(4-((trifluoromethyl)thio)phenyl)imidazolidine-2,4-dione]
9 | ≥ 6.30 | ≥ 6.30 | CC1(C)Cc2c(CN3C(=O)N(c4ccc(SC(F)(F)F)cc4)C(=O)C3(C)C)ccnc2N1 [Compound 21, 1-((2,2-dimethyl-2,3-dihydro-1H-pyrrolo[2,3-b]pyridin-4-yl)methyl)-5,5-dimethyl-3-(4-((trifluoromethyl)thio)phenyl)imidazolidine-2,4-dione]
10 | ≥ 6.30 | ≥ 6.30 | CC1(C)C(=O)N(c2ccc(S(=O)(=O)C(F)(F)F)cc2)C(=O)N1Cc1ccnc2[nH]ccc12 [Compound 22, 1-((1H-pyrrolo[2,3-b]pyridin-4-yl)methyl)-5,5-dimethyl-3-(4-((trifluoromethyl)sulfonyl)phenyl) imidazolidine-2,4-dione]
11 | ≥ 6.30 | ≥ 6.30 | CC1(C)C(=O)N(c2ccc(S(=O)(=O)C(F)(F)F)cc2)C(=O)N1Cc1ccnc2c1CC(=O)N2 [Compound 23, 5,5-dimethyl-1-((2-oxo-2,3-dihydro-1H-pyrrolo[2,3-b]pyridin-4-yl)methyl)-3-(4-((trifluoromethyl)sulfonyl)phenyl)imidazolidine-2,4-dione]
12 | ≥ 6.30 | ≥ 6.30 | CC1(C)C(=O)N(c2ccc(C3(C(F)(F)F)CC3)cc2)C(=O)N1Cc1ccnc2c1C(F)(F)C(=O)N2 [Compound 24, 1-((3,3-difluoro-2-oxo-2,3-dihydro-1H-pyrrolo[2,3-b]pyridin-4-yl)methyl)-5,5-dimethyl-3-(4-(1-(trifluoromethyl)cyclopropyl)phenyl) imidazolidine-2,4-dione]
13 | ≥ 6.30 | ≥ 6.30 | C[C@@H]1COc2c(CN3C(=O)N(c4ccc(C5(C(F)(F)F)CC5)cc4)C(=O)C3(C)C)ccnc2N1 [Compound 25, (R)-5,5-dimethyl-1-((3-methyl-3,4-dihydro-2H-pyrido[3,2-b][1,4]oxazin-8-yl)methyl)-3-(4-(1-(trifluoromethyl)cyclopropyl)phenyl) imidazolidine-2,4-dione]
14 | ≥ 6.30 | ≥ 6.30 | CC(C)Nc1cc(CN2C(=O)N(c3ccc(C4(C(F)(F)F)CC4)cc3)C(=O)C2(C)C)ccn1 [Compound 84, 1-((2-(isopropylamino)pyridin-4-yl)methyl)-5,5-dimethyl-3-(4-(1-(trifluoromethyl)cyclopropyl)phenyl)imidazolidine-2,4-dione]
15 |  | ≥ 6.30 | CC(C)Nc1cc(CN2C(=O)N(c3ccc(SC(F)(F)F)cc3)C(=O)C2(C)C)c(F)cn1 [Compound 384, 1-((5-fluoro-2-(isopropylamino)pyridin-4-yl)methyl)-5,5-dimethyl-3-(4-((trifluoromethyl)thio)phenyl) imidazolidine-2,4-dione]
16 |  | 5.70 to 6.30 | CC(C)C#Cc1cc(CN2C(=O)N(c3ccc(SC(F)(F)F)cc3)C(=O)C2(C)C)cnc1N [Compound 385, 1-((6-amino-5-(3-methylbut-1-yn-1-yl)pyridin-3-yl)methyl)-5,5-dimethyl-3-(4-((trifluoromethyl)thio)phenyl) imidazolidine-2,4-dione]
17 |  | 5.00 to 5.70 | CC(C)Nc1cc(CN2C(=O)N(c3ccc(SC(F)(F)F)cc3)C(=O)C2(C)C)cnn1 [Compound 386, 1-((6-(isopropylamino)pyridazin-4-yl)methyl)-5,5-dimethyl-3-(4-((trifluoromethyl)thio)phenyl) imidazolidine-2,4-dione]
18 |  | 5.70 to 6.30 | CC(C)(C)Nc1cc(CN2C(=O)N(c3ccc(SC(F)(F)F)cc3)C(=O)C2(C)C)ccn1 [Compound 387, 1-((2-(tert-butylamino)pyridin-4-yl)methyl)-5,5-dimethyl-3-(4-((trifluoromethyl)thio)phenyl) imidazolidine-2,4-dione]
19 |  | ≥ 6.30 | CC1(C)C(=O)N(c2ccc([S+]([O-])C(F)(F)F)cc2)C(=O)N1Cc1ccnc(N)c1 (stereo not drawn) [Compound 393, 1-((2-aminopyridin-4-yl)methyl)-5,5-dimethyl-3-(4-((trifluoromethyl)sulfinyl)phenyl) imidazolidine-2,4-dione]
20 |  | 5.00 to 5.70 | CSc1ccc(N2C(=O)N(Cc3ccnc(N)c3)C(C)(C)C2=O)cc1 [Compound 395, 1-((2-aminopyridin-4-yl)methyl)-5,5-dimethyl-3-(4-(methylthio)phenyl)imidazolidine-2,4-dione]
21 |  | ≥ 6.30 | CC1(C)C(=O)N(c2ccc(SC(F)(F)F)cc2)C(=O)N1Cc1cc(N)ncn1 [Compound 396, 1-((6-aminopyrimidin-4-yl)methyl)-5,5-dimethyl-3-(4-((trifluoromethyl)thio)phenyl) imidazolidine-2,4-dione]
22 |  | ≥ 6.30 | CC1(C)C(=O)N(c2ccc(SC(F)(F)F)cc2)C(=O)N1Cc1ccnc(NC(=O)Nc2cccnc2)c1 [Compound 397, 1-(4-((5,5-dimethyl-2,4-dioxo-3-(4-((trifluoromethyl)thio)phenyl)imidazolidin-1-yl)methyl)pyridin-2-yl)-3-(pyridin-3-yl)urea]
23 |  | ≥ 6.30 | CC1(C)C(=O)N(c2ccc(SC(F)(F)F)cc2)C(=O)N1Cc1ccnc(NC(=O)Nc2ccncc2)c1 [Compound 398, 1-(4-((5,5-dimethyl-2,4-dioxo-3-(4-((trifluoromethyl)thio)phenyl)imidazolidin-1-yl)methyl)pyridin-2-yl)-3-(pyridin-4-yl)urea]
24 |  | ≥ 6.30 | CC1(C)C(=O)N(c2ccc(SC(F)(F)F)cc2)C(=O)N1Cc1ccnc(Nc2ncccn2)c1 [Compound 399, 5,5-dimethyl-1-((2-(pyrimidin-2-ylamino)pyridin-4-yl)methyl)-3-(4-((trifluoromethyl)thio)phenyl) imidazolidine-2,4-dione]
25 |  | 5.00 to 5.70 | CC1(C)C(=O)N(c2ccc(SC(F)(F)F)cc2)C(=O)N1CCc1cn[nH]c1 [Compound 400, 1-(2-(1H-pyrazol-4-yl)ethyl)-5,5-dimethyl-3-(4-((trifluoromethyl)thio)phenyl) imidazolidine-2,4-dione]
26 |  | ≥ 6.30 | CC1(C)CNc2cc(N3C(=O)N(Cc4ccnc(N)c4)C(C)(C)C3=O)ccc21 [Compound 401, 1-((2-aminopyridin-4-yl)methyl)-3-(3,3-dimethylindolin-6-yl)-5,5-dimethylimidazolidine-2,4-dione]
27 |  | 5.00 to 5.70 | CC1(C)CNc2ncc(CN3C(=O)N(c4ccc(SC(F)(F)F)cc4)C(=O)C3(C)C)cc21 [Compound 405, 1-((3,3-dimethyl-2,3-dihydro-1H-pyrrolo[2,3-b]pyridin-5-yl)methyl)-5,5-dimethyl-3-(4-((trifluoromethyl)thio)phenyl) imidazolidine-2,4-dione]
28 |  | 5.00 to 5.70 | Cc1c[nH]c2ncc(CN3C(=O)N(c4ccc(SC(F)(F)F)cc4)C(=O)C3(C)C)cc12 [Compound 406, 5,5-dimethyl-1-((3-methyl-1H-pyrrolo[2,3-b]pyridin-5-yl)methyl)-3-(4-((trifluoromethyl)thio)phenyl) imidazolidine-2,4-dione]

— patent publication US20250145585A1, “HETEROCYCLIC INHIBITORS OF IGF-1R FOR TREATMENT OF DISEASE” (HORIZON THERAPEUTICS IRELAND DAC, priority 2023, published 2025)
